US10464896B2, “Efflux-pump inhibitors and therapeutic uses thereof” (Basilea Pharmaceutica International AG, priority 2015, dated 2019)

system: E. coli ATCC25922; assay: Antibacterial activity in combination with minocycline (growth inhibition); format: cell-based; settings: Escherichia coli, ATCC25922, compound at 25 μM; minocycline 0.25 μg/mL; OD625 23 h minus 1 h; read-out: residual growth of E. coli ATCC25922 (% of uninhibited control) with minocycline
Experimental: Antibacterial activity in combination with minocycline or with linezolid
Inhibition of growth was measured with E. coli ATCC25922 and P. aeruginosa PAO1 in a 96-well plate format. Cation-adjusted Müller-Hinton broth (caMHB) was inoculated with an overnight culture and incubated at 37° C. on a shaker until OD625 reached 0.6 to 0.7. Density was adjusted to OD600=0.5 by addition of caMHB. 35 μL of the suspension were diluted to 35 mL with caMHB and supplemented with minocycline at the subinhibitory doses of 0.25 μg/mL for E. coli and 8 μg/mL for P. aeruginosa or with linezolid at the subinhibitory dose of 128 μg/mL for E. coli and P. aeruginosa. Each well contained 1 μL of test compound in 100 μL caMHB with minocycline or with linezolid.
Plates were incubated at 37° C. on a plate shaker. OD625 was measured at 1 h, 6 h, and at 23 h.
The difference between OD at 23 h and at 1 h was taken as measure for cell density and compared to controls without inhibitor (i.e. uninhibited control). Results were expressed as residual growth (% of uninhibited control). Enhancement of minocycline or linezolid activity caused reduced residual growth.

SMILES	activity at 25 µM [%]
Clc1ccc(COc2cccc(CNCC3CNC3)c2)c(Br)c1 [Example 18]	≤ 10
Clc1ccc(-c2ccc(CNCC3CNC3)cc2)cc1 [Example 25]	≤ 10
CC(C)(c1ccccc1)c1ccc(OCCCNCC2CNC2)cc1 [Example 29]	≤ 10
Clc1ccc(COc2cccc(CNCC3CCNC3)c2)c(Br)c1 (stereo not drawn) [Example 30]	≤ 10
CC(C)(c1ccccc1)c1ccc(OCCCNCC2CCNCC2)cc1 [Example 31]	≤ 10
CC(C)(c1ccccc1)c1ccc(OCCCNCC2CCNC2)cc1 (stereo not drawn) [Example 32]	≤ 10
Clc1ccc(COc2ccccc2CNCC2CNC2)c(Br)c1 [Example 33]	≤ 10
Fc1ccc(COc2cccc(CNCC3CNC3)c2)c(F)c1 [Example 34]	≤ 10
Clc1ccc(COc2cccc(CNCC3CCNCC3)c2)c(Br)c1 [Example 35]	≤ 10
Clc1cc(CNCC2CNC2)cc(OCc2ccc(Cl)cc2Br)c1 [Example 37, N-(azetidin-3-ylmethyl)-1-[3-[(2-bromo-4-chloro-phenyl)methoxy]-5-chloro-phenyl]methanamine]	≤ 10
Clc1ccc(OCc2cccc(CNCC3CNC3)c2)c(Br)c1 [Example 38]	≤ 10
CC(C)(c1ccccc1)c1ccc(OCCNCC2CCNCC2)cc1 [Example 39]	≤ 10
Clc1cc(Cl)cc(COc2cccc(CNCC3CNC3)c2)c1 [Example 40]	≤ 10
Brc1ccccc1COc1cccc(CNCC2CNC2)c1 [Example 41]	≤ 10
CC(C)(c1ccccc1)c1ccc(OCCNCC2CCNC2)cc1 (stereo not drawn) [Example 42]	≤ 10
Fc1cc(F)cc(COc2cccc(CNCC3CNC3)c2)c1 [Example 43]	≤ 10
CC(C)(c1ccccc1)c1ccc(CNCC2CCNC2)cc1 (stereo not drawn) [Example 44]	≤ 10
CC(C)(c1ccccc1)c1ccc(CNCC2CNC2)cc1 [Example 45]	≤ 10
CC(C)(c1ccccc1)c1ccc(CNCC2CCNCC2)cc1 [Example 46]	≤ 10
FC(F)(F)c1cc(Br)ccc1COc1cccc(CNCC2CNC2)c1 [Example 47]	≤ 10
FC(F)(F)c1ccc(COc2cccc(CNCC3CNC3)c2)c(Cl)c1 [Example 49]	≤ 10
Clc1ccc(CSc2cccc(CNCC3CNC3)c2)c(Br)c1 [Example 51, N-(azetidin-3-ylmethyl)-1-[3-[(2-bromo-4-chloro-phenyl)methylsulfanyl]phenyl]methanamine]	≤ 10
Fc1cc(Br)ccc1COc1ccc(CNCC2CCNCC2)cc1 [Example 52]	≤ 10

SMILES	activity at 25 µM [%]
Clc1ccc(OCc2cccc(CNC3CCNCC3)c2)c(Br)c1 [Example 53]	≤ 10
Fc1cc(Br)ccc1COc1ccc(CNCC2CCNC2)cc1 (stereo not drawn) [Example 55]	≤ 10
Fc1cc(Br)ccc1COc1ccc(CNCC2CNC2)cc1 [Example 56]	≤ 10
Clc1ccc(OCc2cccc(CCNCC3CNC3)c2)c(Br)c1 [Example 58]	≤ 10
CC(C)(C)c1ccc(COc2ccc(CNC3CCNCC3)cc2)cc1 [Example 59]	≤ 10
Fc1cc(Br)ccc1COc1ccc(CNC2CCNCC2)cc1 [Example 60]	≤ 10
Clc1ccc(/C=C/c2cccc(CNCC3CNC3)c2)c(Br)c1 [Example 61]	≤ 10
Clc1ccc(-c2ccc(CNCC3CCNC3)cc2)c(Br)c1 (stereo not drawn) [Example 62]	≤ 10
Clc1ccc(CCc2cccc(CNCC3CNC3)c2)c(Br)c1 [Example 64, N-(azetidin-3-ylmethyl)-1-[3-[2-(2-bromo-4-chloro-phenyl)ethyl]phenyl]methanamine]	≤ 10
Clc1ccc(OCc2cccc(CNCC3CNCCO3)c2)c(Br)c1 (stereo not drawn) [Example 65]	≤ 10
Clc1ccc(COc2ccc(CNCC3CNC3)cc2)cc1Cl [Example 66]	≤ 10
Clc1ccc(COc2ccc(CNCC3CCNCC3)cc2)cc1Cl [Example 67]	≤ 10
Clc1ccc(-c2ccc(CNCC3CNC3)cc2)c(Br)c1 [Example 68, N-(azetidin-3-ylmethyl)-1-[4-(2-bromo-4-chloro-phenyl)phenyl]methanamine]	≤ 10
Clc1ccc(COc2ccc(CNCC3CCNC3)cc2)cc1Cl (stereo not drawn) [Example 70]	≤ 10
Brc1ccccc1COc1ccc(CNC2CCNCC2)cc1 [Example 71]	≤ 10
Brc1ccccc1COc1ccc(CNCC2CCNCC2)cc1 [Example 72]	≤ 10
Clc1ccc(OCc2cccc(CCCNCC3CNC3)c2)c(Br)c1 [Example 73]	≤ 10
Clc1ccc(-c2cccc(CNCC3CNC3)c2)c(Br)c1 [Example 75]	≤ 10
Brc1ccccc1COc1ccc(CNCC2CCNC2)cc1 (stereo not drawn) [Example 80]	≤ 10
Clc1ccc(Oc2ccc(CNCC3CNC3)cc2)c(Br)c1 [Example 81]	≤ 10
Clc1ccc(Oc2ccccc2CNCC2CCNC2)c(Br)c1 (stereo not drawn) [Example 84]	≤ 10
N#Cc1ccc(COc2ccc(CNCC3CNC3)cc2)c(Br)c1 [Example 85]	≤ 10
Clc1ccc(Oc2cccc(CNCC3CCNC3)c2)c(Br)c1 (stereo not drawn) [Example 88, 1-[3-(2-bromo-4-chloro-phenoxy)phenyl]-N-(pyrrolidin-3-ylmethyl)methanamine]	≤ 10

SMILES	activity at 25 µM [%]
Clc1ccc(Oc2cccc(CNCC3CNC3)c2)c(Br)c1 [Example 90]	≤ 10
c1ccc(-c2cccc(COc3cccc(CNCC4CNC4)c3)c2)cc1 [Example 94]	≤ 10
c1ccc(-c2ccc(COc3cccc(CNCC4CNC4)c3)cc2)cc1 [Example 95]	≤ 10
Clc1ccc(OCCOc2ccc(CNCC3CNC3)cc2)c(Br)c1 [Example 96]	≤ 10
Clc1ccc(COc2ccc(Br)c(CNCC3CNC3)c2)c(Br)c1 [Example 97]	≤ 10
Fc1cc(CNCC2CNC2)cc(OCc2ccc(Cl)cc2Br)c1 [Example 103]	≤ 10
FC(F)(F)c1cc(CNCC2CNC2)cc(OCc2ccc(Cl)cc2Br)c1 [Example 104]	≤ 10
CC(NCC1CNC1)c1ccc(OCc2ccc(Cl)cc2Br)cc1 (stereo not drawn) [Example 105]	≤ 10
C=CCOc1cc(CNCC2CNC2)cc(OCc2ccc(Cl)cc2Br)c1 [Example 106]	≤ 10
C=CCOc1cc(CNCC2CCNC2)cc(OCc2ccc(Cl)cc2Br)c1 (stereo not drawn) [Example 108]	≤ 10
C=CCOc1cc(CNCC2CCNCC2)cc(OCc2ccc(Cl)cc2Br)c1 [Example 109]	≤ 10
Clc1ccc(COc2cccc(CCCNCC3CNC3)c2)c(Br)c1 [Example 111]	≤ 10
Clc1ccc(COc2cccc(CCCNCC3CCNC3)c2)c(Br)c1 (stereo not drawn) [Example 112]	≤ 10
Clc1ccc(COc2ccccc2CCCNCC2CNC2)c(Br)c1 [Example 113]	≤ 10
Clc1ccc(COc2ccccc2CCCNCC2CCNC2)c(Br)c1 (stereo not drawn) [Example 114]	≤ 10
Clc1ccc(COc2ccc(CCCNCC3CNC3)cc2)c(Br)c1 [Example 116]	≤ 10
Clc1ccc(COc2ccc(CCCNCC3CCNC3)cc2)c(Br)c1 (stereo not drawn) [Example 117]	≤ 10
O=C(NCc1ccccc1)c1cc(CNCC2CNC2)cc(OCc2ccc(Cl)cc2Br)c1 [Example 119, 3-[(azetidin-3-ylmethylamino)methyl]-N-benzyl-5-[(2-bromo-4-chloro-phenyl)methoxy]-benzamide]	≤ 10
Brc1ccc(/C=C/c2ccccc2)cc1OCCCNCC1CNC1 [Example 120]	≤ 10
Clc1ccc(COc2cccc(CCNCC3CNC3)c2)c(Br)c1 [Example 121]	≤ 10
Clc1ccc(COc2cccc(CCNCC3CCNC3)c2)c(Br)c1 (stereo not drawn) [Example 122]	≤ 10
Clc1ccc(COc2ccccc2CCNCC2CCNC2)c(Br)c1 (stereo not drawn) [Example 123]	≤ 10

same assay, conditions: Escherichia coli, ATCC25922, compound at 50 μM; minocycline 0.25 μg/mL; OD625 23 h minus 1 h; read-out: residual growth of E. coli ATCC25922 (% of uninhibited control) with minocycline

SMILES	activity at 50 µM [%]
Clc1ccc(COc2ccccc2CNCC2CCNCC2)cc1 [Example 5]	≤ 50
Clc1ccccc1COc1ccccc1CNCC1CCNCC1 [Example 8]	≤ 50
Clc1ccc(COc2cccc(CNCC3CNC3)c2)cc1 [Example 13]	≤ 50
Clc1ccc(COc2ccccc2CNCC2CNC2)cc1 [Example 22]	≤ 50
Clc1ccc(COc2cccc(NCC3CNC3)c2)cc1 [Example 23, N-(azetidin-3-ylmethyl)-3-[(4-chlorophenyl)methoxy]aniline]	≤ 50
Clc1ccc(-c2ccccc2CNCC2CCNC2)c(Br)c1 (stereo not drawn) [Example 69]	≤ 50

same assay, conditions: Escherichia coli, ATCC25922, read-out: residual growth of E. coli ATCC25922 (% of uninhibited control) with minocycline, compound at 25 μM; minocycline 0.25 μg/mL; OD625 23 h minus 1 h

SMILES	activity at 25 µM [%]
Clc1ccc(C=CCc2cccc(CNCC3CNC3)c2)c(Br)c1 (mixture of isomers) [Example 168, N-(azetidin-3-ylmethyl)-1-[3-[(Z/E)-3-(2-bromo-4-chloro-phenyl)allyl]phenyl]methanamine]	≤ 10
